Test results from patent US8802597B2, “Herbicidal pyrimidines” (E I du Pont de Nemours and Company, priority 2003, dated 2014).

Experiments:
Assay in all cases: Test C pre/postemergence
Format in all cases: in vivo
[1] = tested on: common (oilseed) sunflower (Helianthus annuus); details: Preemergence
Procedure, shortened: (§1)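 Seeds sown and sprayed preemergence with test compound in non-phytotoxic solvent containing surfactant; postemergence sprays, same formulation, went onto plants 2 to 18 cm tall (1- to 4-leaf stage). Plants held in greenhouse 12 to 14 days, then visually rated against untreated controls on a 0–100 scale (0 no effect, 100 complete control).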

[2] = tested on: bermudagrass (Cynodon dactylon)
Procedure, shortened: as §1

[3] = tested on: woolly cupgrass (Eriochloa villosa); details: for Cupgrass, Woolly plant response rating: scale 0 to 100 (0 no effect, 100 complete control)
Procedure, shortened: as §1

[4] = tested on: Surinam grass (Brachiaria decumbens); details: for Surinam Grass plant response rating: scale 0 to 100 (0 no effect, 100 complete control)
Procedure, shortened: as §1

[5] = tested on: cocklebur (Xanthium strumarium); details: for Cocklebur plant response rating: scale 0 to 100 (0 no effect, 100 complete control)
Procedure, shortened: as §1

[6] = tested on: johnsongrass (Sorghum halepense); details: for Johnsongrass plant response rating: scale 0 to 100 (0 no effect, 100 complete control)
Procedure, shortened: as §1

[7] = tested on: common ragweed (Ambrosia elatior); details: for Ragweed plant response rating: scale 0 to 100 (0 no effect, 100 complete control)
Procedure, shortened: as §1

corn (Zea mays) = details: for Corn plant response rating: scale 0 to 100 (0 no effect, 100 complete control)
Procedure, shortened: as §1

[8] = tested on: eastern black nightshade (Solanum ptycanthum); details: Preemergence
Procedure, shortened: as §1

kochia (Kochia scoparia) = details: for Kochia plant response rating: scale 0 to 100 (0 no effect, 100 complete control)
Procedure, shortened: as §1

[9] = tested on: morningglory (Ipomoea coccinea); details: for Morningglory plant response rating: scale 0 to 100 (0 no effect, 100 complete control)
Procedure, shortened: as §1

[10] = tested on: pigweed (Amaranthus retroflexus); details: for Pigweed plant response rating: scale 0 to 100 (0 no effect, 100 complete control)
Procedure, shortened: as §1

[11] = 62 g ai/ha, scale 0 to 100, 0 no effect, 100 complete control
[12] = Postemergence, 250 g ai/ha, scale 0 to 100
[13] = Postemergence, 500 g ai/ha, scale 0 to 100
[14] = Preemergence, 62 g ai/ha, scale 0 to 100, 0 no effect, 100 complete control
[15] = Preemergence, 125 g ai/ha, scale 0 to 100
[16] = Preemergence, 250 g ai/ha, scale 0 to 100
[17] = Preemergence, 500 g ai/ha, scale 0 to 100

Structure (SMILES): CCCOC(=O)c1nc(C2CC2)nc(N)c1Br [Compound 15]
- Plant response rating, Sunflower [1, 11]: 65
- Plant response rating, Sunflower ([1]; 125 g ai/ha, scale 0 to 100): 100
- Plant response rating, Sunflower ([1]; 250 g ai/ha, scale 0 to 100): 100
- Plant response rating, Sunflower ([1]; 500 g ai/ha, scale 0 to 100): 100
- Bermudagrass plant response rating ([2]; Postemergence, 62 g ai/ha, scale 0 to 100 (0 no effect, 100 complete control)): 0
- Plant response rating, Bermudagrass [2, 12]: 65
- Plant response rating, Bermudagrass [2, 13]: 75
- Plant response rating, Bermudagrass ([2]; Postemergence, 125 g ai/ha, scale 0 to 100): 45
- Plant response rating, Bermudagrass [2, 14]: 0
- Plant response rating, Bermudagrass [2, 15]: 0
- Plant response rating, Bermudagrass [2, 16]: 0
- Plant response rating, Bermudagrass [2, 17]: 70
- Cupgrass, Woolly plant response rating ([3]; Postemergence, 62 g ai/ha): 0
- Cupgrass, Woolly plant response rating ([3]; Postemergence, 125 g ai/ha): 50
- Plant response rating, Cupgrass, Woolly [3, 12]: 65
- Plant response rating, Cupgrass, Woolly [3, 13]: 75
- Plant response rating, Cupgrass, Woolly [3, 14]: 0
- Plant response rating, Cupgrass, Woolly [3, 15]: 20
- Plant response rating, Cupgrass, Woolly [3, 16]: 85
- Plant response rating, Cupgrass, Woolly [3, 17]: 95
- Surinam Grass plant response rating ([4]; Postemergence, 62 g ai/ha): 0
- Surinam Grass plant response rating ([4]; Postemergence, 125 g ai/ha): 20
- Plant response rating, Surinam Grass [4, 12]: 55
- Plant response rating, Surinam Grass [4, 13]: 65
- Plant response rating, Surinam Grass [4, 14]: 15
- Plant response rating, Surinam Grass [4, 15]: 65
- Plant response rating, Surinam Grass [4, 16]: 75
- Plant response rating, Surinam Grass [4, 17]: 95
- Cocklebur plant response rating ([5]; Postemergence, 62 g ai/ha): 85
- Cocklebur plant response rating ([5]; Postemergence, 125 g ai/ha): 100
- Plant response rating, Cocklebur [5, 12]: 100
- Plant response rating, Cocklebur [5, 13]: 100
- Plant response rating, Cocklebur [5, 14]: 65
- Plant response rating, Cocklebur [5, 15]: 90
- Plant response rating, Cocklebur [5, 16]: 100
- Plant response rating, Cocklebur [5, 17]: 100
- Johnsongrass plant response rating ([6]; Postemergence, 62 g ai/ha): 20
- Johnsongrass plant response rating ([6]; Postemergence, 125 g ai/ha): 55
- Plant response rating, Johnsongrass [6, 12]: 70
- Plant response rating, Johnsongrass [6, 13]: 80
- Plant response rating, Johnsongrass [6, 14]: 20
- Plant response rating, Johnsongrass [6, 15]: 65
- Plant response rating, Johnsongrass [6, 16]: 75
- Plant response rating, Johnsongrass [6, 17]: 95
- Ragweed plant response rating ([7]; Postemergence, 62 g ai/ha): 75
- Ragweed plant response rating ([7]; Postemergence, 125 g ai/ha): 85
- Plant response rating, Ragweed [7, 12]: 90
- Plant response rating, Ragweed [7, 13]: 95
- Plant response rating, Ragweed [7, 14]: 90
- Plant response rating, Ragweed [7, 15]: 95
- Plant response rating, Ragweed [7, 16]: 100
- Plant response rating, Ragweed [7, 17]: 100
- Corn plant response rating (corn (Zea mays); Postemergence, 62 g ai/ha): 15
- Corn plant response rating (corn (Zea mays); Postemergence, 125 g ai/ha): 15
- Plant response rating, Corn (corn (Zea mays); [12]): 55
- Plant response rating, Corn (corn (Zea mays); [13]): 75
- Plant response rating, Corn (corn (Zea mays); [14]): 0
- Plant response rating, Corn (corn (Zea mays); [15]): 15
- Plant response rating, Corn (corn (Zea mays); [16]): 45
- Plant response rating, Corn (corn (Zea mays); [17]): 60
- Plant response rating, Nightshade [8, 11]: 95
- Plant response rating, Nightshade ([8]; 125 g ai/ha, scale 0 to 100): 100
- Plant response rating, Nightshade ([8]; 250 g ai/ha, scale 0 to 100): 100
- Plant response rating, Nightshade ([8]; 500 g ai/ha, scale 0 to 100): 100
- Kochia plant response rating (kochia (Kochia scoparia); Postemergence, 62 g ai/ha): 95
- Kochia plant response rating (kochia (Kochia scoparia); Postemergence, 125 g ai/ha): 95
- Plant response rating, Kochia (kochia (Kochia scoparia); [12]): 100
- Plant response rating, Kochia (kochia (Kochia scoparia); [13]): 100
- Plant response rating, Kochia (kochia (Kochia scoparia); [14]): 95
- Plant response rating, Kochia (kochia (Kochia scoparia); [15]): 100
- Plant response rating, Kochia (kochia (Kochia scoparia); [16]): 100
- Plant response rating, Kochia (kochia (Kochia scoparia); [17]): 100
- Morningglory plant response rating ([9]; Postemergence, 62 g ai/ha): 90
- Morningglory plant response rating ([9]; Postemergence, 125 g ai/ha): 95
- Plant response rating, Morningglory [9, 12]: 100
- Plant response rating, Morningglory [9, 13]: 100
- Plant response rating, Morningglory [9, 14]: 95
- Plant response rating, Morningglory [9, 15]: 100
- Plant response rating, Morningglory [9, 16]: 100
- Plant response rating, Morningglory [9, 17]: 100
- Pigweed plant response rating ([10]; Postemergence, 62 g ai/ha): 65
- Pigweed plant response rating ([10]; Postemergence, 125 g ai/ha): 70
- Plant response rating, Pigweed [10, 12]: 85
- Plant response rating, Pigweed [10, 13]: 100
- Plant response rating, Pigweed [10, 14]: 90
- Plant response rating, Pigweed [10, 15]: 100
- Plant response rating, Pigweed [10, 16]: 100
- Plant response rating, Pigweed [10, 17]: 100
